In series [1] the test system is Smaller tea Tortrix (Adoxophyes sp.). Description: Insecticidal effect on smaller tea tortrix (Test Example 3). As to conditions: 50 ppm; tea leaf immersed 30 seconds; larvae; 25° C., humidity 70%; eight days after the inoculation. In kind it is in vivo. The protocol: Insecticidal Effect on Smaller tea Tortrix (Adoxophyes sp.)
A leaf of tea tree was immersed for 30 seconds in a liquid chemical containing each compound listed in Table 1, 2 or 3 as an active ingredient to adjust the concentration to 50 ppm. After air-dryness, the leaf was transferred to a plastic dish with a diameter of 9 cm and inoculated with larval smaller tea tortrix. Then, the leaf was allowed to stand in a room thermostatted at 25° C. at a humidity of 70%. Eight days after the inoculation, the dead and alive were counted, and the insecticidal effect was judged according to the same criterion as mentioned in Test Example 1. The test was carried out with triplicate groups of 10 insects.

Series [2] has as its system Diamond Back Moth (Plutella xylostella). The series is described as follows: Insecticidal effect on diamond back moth (Test Example 1). The format is in vivo. The following applies: 50 ppm; Chinese cabbage seedling with deposited eggs immersed about 30 seconds; 25° C.; six days after the immersion. The text has this:
Insecticidal Effect on Diamond Back Moth (Plutella xylostella)
Adult diamondback moths were released and allowed to oviposit on a Chinese cabbage seedling. Two days after the release, the seedling having the eggs deposited thereon was immersed for about 30 seconds in a liquid chemical prepared by diluting a preparation containing each compound listed in Table 1, 2 or 3 as an active ingredient to adjust the concentration to 50 ppm. After air-dryness, it was allowed to stand in a room thermostatted at 25° C. Six days after the immersion, the hatched insects were counted. The mortality was calculated according to the following equation and the insecticidal effect was judged according to the criterion shown below. The test was carried out with triplicate groups of 10 insects.

Each structure is given as a SMILES string.

`CCS(=O)(=O)CC(C)(C)NC(=O)c1c(I)cccc1C(=O)Nc1ccc(OC(F)(F)F)cc1C` [compound 251]: in series [1], the “Test Example 3 insecticidal effect (mortality)” value is “A (100)”. Turning to `CCCCSCC(C)NC(=O)c1c(I)cccc1C(=O)Nc1ccc(C(F)(F)C(F)(F)F)cc1C` (stereo not drawn) [compound 64], the “Test Example 3 insecticidal effect (mortality)” value in series [1] is listed as “A (100)”. Moreover, in series [2], the “Test Example 1 insecticidal effect (mortality)” value is “A (100)”. Turning to `CSCC(C)NC(=O)c1cc2ccccc2cc1C(=O)Nc1ccc(C(F)(C(F)(F)F)C(F)(F)F)cc1C` (stereo not drawn) [compound 332], in series [1], the “Test Example 3 insecticidal effect (mortality)” value is listed as “A (100)”. In addition, the “Test Example 1 insecticidal effect (mortality)” value in series [2] is given as “A (100)”.

For `CSCC(C)NC(=O)c1ccccc1C(=O)Nc1ccc(C(F)(C(F)(F)F)C(F)(F)F)cc1C` (stereo not drawn) [Compound No. 16], in series [1], the “Test Example 3 insecticidal effect (mortality)” value is given as “A (100)”. The “Test Example 1 insecticidal effect (mortality)” value in series [2] is “A (100)”.

As for `Cc1cc(C(F)(F)C(F)(F)F)ccc1NC(=O)c1cccc(I)c1C(=O)NC(C)CSC1CCCCC1` (stereo not drawn) [compound 85], the “Test Example 3 insecticidal effect (mortality)” value in series [1] is given as “A (100)”. In addition, in series [2], the “Test Example 1 insecticidal effect (mortality)” value was “A (100)”. Consider `CSCCCNC(=O)c1c(I)cccc1C(=O)Nc1ccc(C(F)(C(F)(F)F)C(F)(F)F)cc1C` [compound 57], for which the “Test Example 3 insecticidal effect (mortality)” value in series [1] was “A (100)”. Further, the “Test Example 1 insecticidal effect (mortality)” value in series [2] is recorded as “A (100)”. As for `CCN(CCC[S+](C)[O-])C(=O)c1c(F)cccc1C(=O)Nc1ccc(C(F)(C(F)(F)F)C(F)(F)F)cc1C` (stereo not drawn) [2-13], the “Test Example 3 insecticidal effect (mortality)” value in series [1] was “A (100)”. Further, in series [2], the “Test Example 1 insecticidal effect (mortality)” value is “A (100)”. For `CSC1CCCCC1NC(=O)c1c(I)cccc1C(=O)Nc1ccc(C(F)(C(F)(F)F)C(F)(F)F)cc1C` (stereo not drawn) [compound 273], the “Test Example 3 insecticidal effect (mortality)” value in series [1] is “C (89-80)”. The “Test Example 1 insecticidal effect (mortality)” value in series [2] is on record as “A (100)”.

For `CSCCSCC(C)NC(=O)c1c(I)cccc1C(=O)Nc1ccc(OC(F)(F)F)cc1C` (stereo not drawn) [compound 190], the “Test Example 3 insecticidal effect (mortality)” value in series [1] was “A (100)”. Further, in series [2], the “Test Example 1 insecticidal effect (mortality)” value is “A (100)”.

For the compound `CSCC(C)NC(=O)c1ccc(Cl)c(Cl)c1C(=O)Nc1ccc(OC(F)(F)F)cc1C` (stereo not drawn) [compound 38], the “Test Example 3 insecticidal effect (mortality)” value in series [1] is reported as “A (100)”. In series [2], the “Test Example 1 insecticidal effect (mortality)” value is recorded as “A (100)”. In the case of `Cc1cc(C(F)(C(F)(F)F)C(F)(F)F)ccc1NC(=O)c1cccc(I)c1C(=O)NC(C)CSC(=O)N(C)C` (stereo not drawn) [compound 461], the “Test Example 3 insecticidal effect (mortality)” value in series [1] is recorded as “D (79-50)”. Also, in series [2], the “Test Example 1 insecticidal effect (mortality)” value is listed as “A (100)”. For `CSCC(C)(C)NC(=O)c1c(C(=O)Nc2ccc(OC(F)(F)F)cc2C)ccc2c1OCO2` [compound 252], in that order: “A (100)” and “A (100)”. `CSCC(C)(C)NC(=O)c1c(I)cccc1C(=O)Nc1ccc(Cc2ccc(Cl)cc2)cc1C` [compound 471]: in series [1], the “Test Example 3 insecticidal effect (mortality)” value is recorded as “A (100)”. The “Test Example 1 insecticidal effect (mortality)” value in series [2] was “A (100)”.

As to `Cc1cc(C(F)(C(F)(F)F)C(F)(F)F)ccc1NC(=O)c1cccc(I)c1C(=O)NC(C)CSC(=S)N(C)C` (stereo not drawn) [compound 302], the “Test Example 3 insecticidal effect (mortality)” value in series [1] was “A (100)”. The “Test Example 1 insecticidal effect (mortality)” value in series [2] is on record as “A (100)”. `CSCC1(NC(=O)c2c(I)cccc2C(=O)Nc2ccc(C(F)(C(F)(F)F)C(F)(F)F)cc2C)CCCC1` [compound 445]: the “Test Example 3 insecticidal effect (mortality)” value in series [1] is recorded as “A (100)”. For the same compound, in series [2], the “Test Example 1 insecticidal effect (mortality)” value is given as “A (100)”.

In the case of `Cc1cc(C(F)(C(F)(F)F)C(F)(F)F)ccc1NC(=O)c1cccc(Cl)c1C(=O)NC(C)(C)CS(C)(=O)=O` [compound 171], in series [1], the “Test Example 3 insecticidal effect (mortality)” value is reported as “A (100)”. In series [2], the “Test Example 1 insecticidal effect (mortality)” value is on record as “A (100)”.

Consider `CSCC(C)(C)NC(=O)c1c(I)cccc1C(=O)Nc1ccc(C(=O)N(C)c2ccc(Cl)cc2)cc1C` [compound 480], for which, in series [1], the “Test Example 3 insecticidal effect (mortality)” value is recorded as “A (100)”. Besides, the “Test Example 1 insecticidal effect (mortality)” value in series [2] is “A (100)”. On to `CSCC(C)NC(=O)c1c(I)cccc1C(=O)Nc1ccc([Si](C)(C)C)cc1C` (stereo not drawn) [compound 368], for which the “Test Example 3 insecticidal effect (mortality)” value in series [1] is listed as “A (100)”. Further, in series [2], the “Test Example 1 insecticidal effect (mortality)” value is “A (100)”. Turning to `Cc1cc(C(F)(C(F)(F)F)C(F)(F)F)ccc1NC(=O)c1cccc(I)c1C(=O)NC(C)CSc1nccs1` (stereo not drawn) [compound 352], the “Test Example 3 insecticidal effect (mortality)” value in series [1] is recorded as “A (100)”. The “Test Example 1 insecticidal effect (mortality)” value in series [2] is recorded as “A (100)”.

Turning to `Cc1cc(C(F)(C(F)(F)F)C(F)(F)F)ccc1NC(=O)c1ccc2ccccc2c1C(=O)NC(C)CS(C)(=O)=O` (stereo not drawn) [compound 335], the “Test Example 3 insecticidal effect (mortality)” value in series [1] was “D (79-50)”. Moreover, the “Test Example 1 insecticidal effect (mortality)” value in series [2] is reported as “A (100)”. For `CSCC(C)(C)NC(=O)c1c(I)cccc1C(=O)Nc1ccc(Oc2cccc(C#N)c2)cc1C` [compound 475], in that order: “A (100)” and “A (100)”. The matching figures for `Cc1cc(C(F)(F)C(F)(F)F)ccc1NC(=O)c1cccc(I)c1C(=O)NCCSC(C)C` [compound 59]: “A (100)” and “A (100)”. The matching figures for `Cc1cc(C(F)(C(F)(F)F)C(F)(F)F)ccc1NC(=O)c1cccc([N+](=O)[O-])c1C(=O)NC(C)(C)C[S+](C)[O-]` (stereo not drawn) [compound 327]: “A (100)” and “A (100)”. `CSCC(C)(C)NC(=O)c1c(I)cccc1C(=O)Nc1ccc(C(O)c2ccc(Cl)cc2)cc1C` (stereo not drawn) [compound 472]: in series [1], the “Test Example 3 insecticidal effect (mortality)” value is “A (100)”. The “Test Example 1 insecticidal effect (mortality)” value in series [2] is reported as “A (100)”.

On to `CSCC(C)(C)NC(=O)c1c(I)cccc1C(=O)Nc1ccc(Oc2ccc(Cl)cc2)cc1C` [compound 473], for which the “Test Example 3 insecticidal effect (mortality)” value in series [1] is given as “B (99-90)”. In addition, the “Test Example 1 insecticidal effect (mortality)” value in series [2] is “A (100)”.

Regarding `Cc1nnc(SCC(C)NC(=O)c2c(I)cccc2C(=O)Nc2ccc(C(F)(C(F)(F)F)C(F)(F)F)cc2C)s1` (stereo not drawn) [compound 353], the “Test Example 3 insecticidal effect (mortality)” value in series [1] is recorded as “A (100)”. Further, the “Test Example 1 insecticidal effect (mortality)” value in series [2] is listed as “A (100)”. `Cc1cc(C(F)(C(F)(F)F)C(F)(F)F)ccc1NC(=O)c1cccc(I)c1C(=O)NC(C)CSc1nc2ccccc2s1` (stereo not drawn) [compound 319]: the “Test Example 3 insecticidal effect (mortality)” value in series [1] is “A (100)”. Further, the “Test Example 1 insecticidal effect (mortality)” value in series [2] is on record as “A (100)”. On to `Cc1cc(C(F)(C(F)(F)F)C(F)(F)F)ccc1NC(=O)c1cccc(I)c1C(=O)NC(C[S+](C)[O-])c1ccccc1` (stereo not drawn) [compound 137], for which, in series [1], the “Test Example 3 insecticidal effect (mortality)” value is “A (100)”. The “Test Example 1 insecticidal effect (mortality)” value in series [2] is “A (100)”. `Cc1cc(C(F)(C(F)(F)F)C(F)(F)F)ccc1NC(=O)c1ccc(C)c(Cl)c1C(=O)NC(C)CS(C)(=O)=O` (stereo not drawn) [compound 379]: the “Test Example 1 insecticidal effect (mortality)” value in series [2] is reported as “A (100)”. Same read-out and setting: the value for `CSCC(C)(C)NC(=O)c1c(C(=O)Nc2ccc(OC(F)(F)F)cc2C)cccc1[N+](=O)[O-]` [compound 322] was “A (100)”; that for `Cc1cc(C(F)(C(F)(F)F)C(F)(F)F)ccc1NC(=O)c1ccc2c(c1C(=O)NC(C)CS(C)(=O)=O)OC(F)(F)O2` (stereo not drawn) [compound 289] was “A (100)”. Still for that read-out and setting: the entry for `CC[S+]([O-])CCCC(C)NC(=O)c1c(Br)cccc1C(=O)Nc1ccc(C(F)(C(F)(F)F)C(F)(F)F)cc1C` (stereo not drawn) [compound 214] is “A (100)”; for `Cc1cc(C(F)(C(F)(F)F)C(F)(F)F)ccc1NC(=O)c1cccc(I)c1C(=O)N1CCSC1` [3-2] it is “A (100)”. The same measure, in the same setting: the entry for `Cc1cc(C(F)(F)F)ccc1NC(=O)c1cccc([N+](=O)[O-])c1C(=O)NC(C)C[S+](C)[O-]` (stereo not drawn) [compound 390] is “A (100)”; for `COC(=O)CC[S+]([O-])CC(C)NC(=O)c1c(I)cccc1C(=O)Nc1ccc(C(F)(C(F)(F)F)C(F)(F)F)cc1C` (stereo not drawn) [compound 342] it is “A (100)”. Consider `CSCC(C)(C)NC(=O)c1c(C(=O)Nc2ccc(OC(F)(F)F)cc2C)ccc2c1OC(F)(F)O2` [compound 292], for which the “Test Example 1 insecticidal effect (mortality)” value in series [2] was “A (100)”. Still for that read-out and setting: the entry for `CCCCCCSCC(C)NC(=O)c1c(I)cccc1C(=O)Nc1ccc(OC(F)(F)F)cc1C` (stereo not drawn) [compound 77] is “A (100)”. Still for that read-out and setting: the value for `CSCCNC(=O)c1c(I)cccc1C(=O)Nc1ccc(OC(F)(F)F)cc1C` [compound 52] was “A (100)”. Consider `CSCCCNC(=O)c1c(I)cccc1C(=O)Nc1ccc(OC(F)(F)F)cc1C` [compound 55], for which, in series [2], the “Test Example 1 insecticidal effect (mortality)” value was “A (100)”.

As to `CC(C)CC(C)c1cc(C(F)(C(F)(F)F)C(F)(F)F)ccc1NC(=O)c1cccc(I)c1C(=O)NC(C)(C)C[S+](C)[O-]` (stereo not drawn) [compound 465], the “Test Example 1 insecticidal effect (mortality)” value in series [2] is given as “A (100)”. Turning to `CSCC(C)NC(=O)c1cc(I)ccc1C(=O)Nc1ccc(OC(F)(F)F)cc1C` (stereo not drawn) [compound 107], the “Test Example 1 insecticidal effect (mortality)” value in series [2] is “A (100)”. The same measure, in the same setting: the entry for `Cc1cc(OC(F)(F)F)ccc1NC(=O)c1cccc(I)c1C(=O)NC1CCSC1` (stereo not drawn) [compound 258] is “A (100)”.
